Patent publication US9644083B2, “Cellulose acylate film, polarizing plate protective film, polarizing plate and liquid crystal display using the same” (FUJIFILM Corporation, priority 2014, dated 2017)

Assay: acid dissociation constant pKa by alkali titration method
Assay type: physicochemical
Settings: 25° C., mixed solvent tetrahydrofuran 60 ml/water 40 ml
Procedure: The cellulose acylate film of the present invention contains at least two chelating agents. One of the two chelating agents is a chelating agent having a […] pKa and, in the present invention, such is a chelating agent (chelating agent A) having at least one functional group whose acid dissociation constant pKa measured at 25° C. in a mixed solvent having a mixing ratio of tetrahydrofuran 60 ml/water 40 ml is 6 or less.
The acid dissociation constant pKa can be measured in accordance with an alkali titration method described in Experimental Chemistry Course, 2nd Ed., pp. 215-217, published by MARUZEN PUBLISHING CO., LTD.
At least one residual chelating agent of the at least two chelating agents which the cellulose acylate film of the present invention contains, is a chelating agent B having at least one functional group of a conjugate acid, whose pKa measured at 25° C. in a mixed solvent having a mixing ratio of tetrahydrofuran 60 ml/water 40 ml, is 7 or more.

Structure (SMILES)	Chelating agent A pKa of acidic group
CCCCCCCCCCCCCCCC(=O)OC[C@H](O)[C@H]1OC(=O)C(O)=C1O [L-ascorbic acid palmitic acid ester]	6.0
O=P(O)(O)CN(CCN(CP(=O)(O)O)CP(=O)(O)O)CP(=O)(O)O [PH-540, Ethylenediamine N,N,N′,N′-tetrakis(methylenephosphonic acid)]	Less than 3
O=C(O)CN(CCN(CC(=O)O)CC(=O)O)CCN(CC(=O)O)CC(=O)O [diethylenetriaminepentaacetic acid]	3.6

Same assay, conditions: pKa of conjugate acid; 25° C., mixed solvent tetrahydrofuran 60 ml/water 40 ml; read-out: Chelating agent B pKa of basic group

Structure (SMILES)	pKa
CC(O)CN(CCN(CC(C)O)CC(C)O)CCN(CC(C)O)CC(C)O (stereo not drawn) [N,N,N′,N″,N″-pentakis(2-hydroxypropyl)diethylenetriamine]	8.4
ONc1nc(NC2CCCCC2)nc(NC2CCCCC2)n1 [Chelating agent D]	14
NCCNCCNCCN [triethylenetetramine]	8.9
